PubChem BioAssay (NCI)
“And” between values parts separate entries of the source, which are not always exact repeats. Equal entries are not always repeated.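 Cells were grown in 96-well plates and exposed to each compound for 48 hours at five concentrations; endpoints were interpolated linearly between bracketing concentrations, or set to the highest concentration if not reached. The concentration for 50% growth inhibition is given as GI50. TGI: concentration producing complete growth inhibition.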

What was measured:
Experiment in all cases: inhibition of tumour cell growth, NCI panel, 48 h
CAKI-1 renal = tested on: CAKI-1 renal
CCRF-CEM leukemia = tested on: CCRF-CEM leukemia
COLO 205 colon = tested on: COLO 205 colon
HOP-62 NSCLC = tested on: HOP-62 NSCLC
OVCAR-3 ovarian = tested on: OVCAR-3 ovarian
OVCAR-4 ovarian = tested on: OVCAR-4 ovarian
RPMI-8226 leukemia = tested on: RPMI-8226 leukemia
SF-295 CNS = tested on: SF-295 CNS
T-47D breast = tested on: T-47D breast
U251 CNS = tested on: U251 CNS

Row | Compound | GI50 (CAKI-1 renal) | TGI (CAKI-1 renal) | GI50 (CCRF-CEM leukemia) | TGI (CCRF-CEM leukemia) | GI50 (COLO 205 colon) | TGI (COLO 205 colon) | GI50 (HOP-62 NSCLC) | TGI (HOP-62 NSCLC) | GI50 (OVCAR-3 ovarian) | TGI (OVCAR-3 ovarian) | GI50 (OVCAR-4 ovarian) | TGI (OVCAR-4 ovarian) | GI50 (RPMI-8226 leukemia) | TGI (RPMI-8226 leukemia) | GI50 (SF-295 CNS) | TGI (SF-295 CNS) | GI50 (T-47D breast) | TGI (T-47D breast) | GI50 (U251 CNS) | TGI (U251 CNS)
1 | C=CC(=O)N1C[C@@H]2CCOc3c(Cl)c(-c4c(O)cccc4F)c(F)c4ncnc(c34)N2C[C@H]1C | 2.67 µM | 19.4 µM | 11.5 µM | > 100 µM | 17.6 µM | 35.9 µM | 0.0507 µM | 25.5 µM | 6.11 µM | 18.5 µM | 9.18 µM | 72 µM | 5.96 µM | > 100 µM | 15.6 µM | 32.5 µM | 14.9 µM | 87.4 µM | 15 µM | 36.2 µM
2 | COc1cc([N+](=O)[O-])c(OC)cc1-c1nc2sc(C)cn2c1/C(N)=N/C(=N)N | > 100 µM | > 100 µM | 18 µM | > 100 µM | > 100 µM | > 100 µM | 71.3 µM | > 100 µM | 27.6 µM | > 100 µM | > 100 µM | > 100 µM | 84.1 µM | > 100 µM | 16.6 µM | > 100 µM | > 100 µM | > 100 µM | 6.49 µM | > 100 µM
3 | Cc1ccc(C=C2C(Cl)=C(Cl)C(Cl)=C2Cl)cc1 | 0.503 µM | 2.16 µM | 0.167 µM | 0.49 µM | 0.737 µM | 2.09 µM | 2.13 µM | 4.44 µM | 0.361 µM | 1.06 µM | 1 µM | 2.75 µM | 0.224 µM | 0.653 µM | 1.55 µM | 3.93 µM | 1.02 µM | 2.79 µM | 0.664 µM | 1.96 µM
4 | Cc1cnc2oc3ccc(O)cc3c2c1-c1ccccc1 | 58.6 µM | > 100 µM | > 100 µM | > 100 µM | > 100 µM | > 100 µM | 27.3 µM | 83.4 µM | 47.5 µM | > 100 µM | > 100 µM | > 100 µM | > 100 µM | > 100 µM | 23.8 µM | 93.2 µM | 3.63 µM | > 100 µM | 17.9 µM | 51 µM
5 | O=C(c1ccccc1Cl)n1oc2ccccc2c1=O | – | > 100 µM | – | 74 µM | – | > 100 µM | – | > 100 µM | – | > 100 µM | – | > 100 µM | – | 68.8 µM | – | > 100 µM | – | > 100 µM | – | > 100 µM
6 | O=C(C=P(c1ccccc1)(c1ccccc1)c1ccccc1)CCl | 0.98 µM | 2.81 µM | 0.826 µM | 7.41 µM | 1.53 µM | 3.66 µM | 2.62 µM | 7.93 µM | 1.33 µM | 2.68 µM | 0.488 µM | 2.2 µM | 0.965 µM | 4.45 µM | 2.3 µM | 7.62 µM | 1.04 µM | 2.99 µM | 1.58 µM | 3.7 µM
7 | Cn1cc(C2=C(c3cn(-c4ccccc4)c4ccccc34)C(=O)NC2=O)c2ccccc21 | 16.4 µM | > 25 µM | 15.2 µM | > 25 µM | 11.6 µM | > 25 µM | > 25 µM | > 25 µM | 14 µM | > 25 µM | 10.4 µM | > 25 µM | 12.1 µM | > 25 µM | 13.3 µM | > 25 µM | 7.53 µM | > 25 µM | 11.5 µM | > 25 µM
8 | Oc1ccc2c3c1OC1c4[nH]ncc4C[C@H]4[C@@H](C2)N(CC2CC2)CC[C@]314 (stereo partly drawn) | – | > 100 µM | – | > 100 µM | – | > 100 µM | – | > 100 µM | – | > 100 µM | – | > 100 µM | – | > 100 µM | – | > 100 µM | – | > 100 µM | – | > 100 µM
9 | Cn1c(=O)nc2n(-c3ccc(Cl)cc3)c3cc(Cl)ccc3nc-2c1=O | – | 20.7 µM | – | 33.2 µM | – | 5.14 µM | – | 33.2 µM | – | 4.19 µM | – | 2.53 µM | – | 22.8 µM | – | 23.7 µM | – | 2.03 µM | – | 33 µM
10 | NC(=S)N/N=C1\c2ccccc2-c2c(F)c(F)c(F)c(F)c21 | 2.34 µM | 7.16 µM | 1.09 µM | 3.95 µM | 8.01 µM | 19.6 µM | 2.71 µM | 6.72 µM | 2.06 µM | 3.88 µM | 1.65 µM | 3.52 µM | 3.92 µM | > 55.9 µM | 12.4 µM | 57.7 µM | 1.91 µM | 5.08 µM | 3.16 µM | 10.2 µM
11 | COc1cc(/C=C2\CCC/C(=C\c3ccc(O)c(OC)c3)C2=O)ccc1O | 1.88 µM | 8.46 µM and 5.99 µM | 0.366 µM | 12.2 µM and > 100 µM | 3.61 µM | 24.4 µM and 13.6 µM | 1.79 µM | 8.32 µM and 3.95 µM | 1.56 µM | 10.8 µM and 3.39 µM | 2.54 µM | 43.5 µM and 10.6 µM | 0.397 µM | 10.8 µM and 3.59 µM | 1.71 µM | 9.16 µM and 5.15 µM | 1.91 µM | 12.2 µM and 7.41 µM | 1.62 µM | 8.89 µM and 4.21 µM
12 | Clc1cc(Cl)c(OCCCCCCN2CCNCC2)c(Cl)c1 | 2.09 µM | 6.39 µM | 1.89 µM | 4.31 µM | 1.82 µM | 3.58 µM | 10.6 µM | 26 µM | 2.76 µM | 9.05 µM | 3.48 µM | 15.1 µM | 2.11 µM | 4.62 µM | 1.81 µM | 3.91 µM | 2.01 µM | 5.06 µM | 2.3 µM | 6.09 µM
13 | CCc1cnn2c(NCc3ccc[n+]([O-])c3)cc(N3CCCC[C@H]3CCO)nc12 | 0.0491 µM and 0.00911 µM | > 63.4 µM | < 0.01 µM and 0.00331 µM | – | < 0.01 µM and 0.00235 µM | < 0.01 µM and 0.00586 µM | < 0.01 µM and 0.00415 µM | 0.0351 µM | 0.00327 µM | > 10 µM | < 0.0105 µM and 0.00798 µM | – | < 0.01 µM and 0.00668 µM | 0.0244 µM and 0.0436 µM | < 0.0129 µM and 0.00732 µM | 0.0962 µM and 0.0602 µM | < 0.01 µM and 0.00485 µM | 0.0777 µM | < 0.01 µM and 0.00368 µM | > 100 µM
